Values joined by “and” are separate entries in the source; they are usually repeats but may differ in a detail not shown here. Equal entries are not always repeated.
Conditions: Liquid; for speed of sound: Frequency=3 MHz, Single path-length method; for mass density: Vibrating tube method

CC(C)O [propan-2-ol]
Conditions | mass density | speed of sound [m/s]
293.15 K, 100 kPa | 785.4 kg/m3 and 785.46 kg/m3 | 1157.5
293.15 K, 1000 kPa | 786.2 kg/m3 | –
293.15 K, 5000 kPa | 789.6 kg/m3 | –
293.15 K, 10000 kPa | 793.6 kg/m3 | –
293.15 K, 15000 kPa | 797.4 kg/m3 | –
293.15 K, 20000 kPa | 801.1 kg/m3 | –
293.15 K, 25000 kPa | 804.5 kg/m3 | –
293.15 K, 30000 kPa | 807.9 kg/m3 | –
293.15 K, 35000 kPa | 811.2 kg/m3 | –
293.15 K, 40000 kPa | 814.2 kg/m3 | –
293.15 K, 45000 kPa | 817.2 kg/m3 | –
293.15 K, 50000 kPa | 820.1 kg/m3 | –
293.15 K, 55000 kPa | 822.9 kg/m3 | –
293.15 K, 60000 kPa | 825.6 kg/m3 | –
293.15 K, 65000 kPa | 828.2 kg/m3 | –
293.15 K, 70000 kPa | 830.8 kg/m3 | –
293.15 K, 80000 kPa | 835.8 kg/m3 | –
293.15 K, 90000 kPa | 840.5 kg/m3 | –
293.15 K, 100000 kPa | 845 kg/m3 | –
293.15 K, 110000 kPa | 849.4 kg/m3 | –
293.15 K, 120000 kPa | 853.5 kg/m3 | –
293.15 K, 130000 kPa | 857.6 kg/m3 | –
293.15 K, 140000 kPa | 861.2 kg/m3 | –
298.15 K, 100 kPa | 781.27 kg/m3 and 781.4 kg/m3 | 1139.7
298.15 K, 1000 kPa | 782.1 kg/m3 | –
298.15 K, 5000 kPa | 785.6 kg/m3 | –
298.15 K, 10000 kPa | 789.8 kg/m3 | –
298.15 K, 15000 kPa | 793.7 kg/m3 | –
298.15 K, 20000 kPa | 797.3 kg/m3 | –
298.15 K, 25000 kPa | 800.9 kg/m3 | –
298.15 K, 30000 kPa | 804.3 kg/m3 | –
298.15 K, 35000 kPa | 807.7 kg/m3 | –
298.15 K, 40000 kPa | 810.8 kg/m3 | –
298.15 K, 45000 kPa | 813.8 kg/m3 | –
298.15 K, 50000 kPa | 816.7 kg/m3 | –
298.15 K, 55000 kPa | 819.7 kg/m3 | –
298.15 K, 60000 kPa | 822.5 kg/m3 | –
298.15 K, 65000 kPa | 825.2 kg/m3 | –
298.15 K, 70000 kPa | 827.6 kg/m3 | –
298.15 K, 80000 kPa | 832.8 kg/m3 | –
298.15 K, 90000 kPa | 837.5 kg/m3 | –
298.15 K, 100000 kPa | 842.3 kg/m3 | –
298.15 K, 110000 kPa | 846.4 kg/m3 | –
298.15 K, 120000 kPa | 850.8 kg/m3 | –
298.15 K, 130000 kPa | 854.8 kg/m3 | –
298.15 K, 140000 kPa | 858.7 kg/m3 | –
303.15 K, 100 kPa | 777 kg/m3 | 1122.6
313.15 K, 100 kPa | 768.21 kg/m3 and 768.2 kg/m3 | 1087.2
313.15 K, 1000 kPa | 769.1 kg/m3 | –
313.15 K, 5000 kPa | 773 kg/m3 | –
313.15 K, 10000 kPa | 777.4 kg/m3 | –
313.15 K, 15000 kPa | 781.8 kg/m3 | –
313.15 K, 20000 kPa | 785.7 kg/m3 | –
313.15 K, 25000 kPa | 789.5 kg/m3 | –
313.15 K, 30000 kPa | 793.3 kg/m3 | –
313.15 K, 35000 kPa | 796.9 kg/m3 | –
313.15 K, 40000 kPa | 800.1 kg/m3 | –
313.15 K, 45000 kPa | 803.4 kg/m3 | –
313.15 K, 50000 kPa | 806.5 kg/m3 | –
313.15 K, 55000 kPa | 809.6 kg/m3 | –
313.15 K, 60000 kPa | 812.5 kg/m3 | –
313.15 K, 65000 kPa | 815.4 kg/m3 | –
313.15 K, 70000 kPa | 818.2 kg/m3 | –
313.15 K, 80000 kPa | 823.4 kg/m3 | –
313.15 K, 90000 kPa | 828.5 kg/m3 | –
313.15 K, 100000 kPa | 833.1 kg/m3 | –
313.15 K, 110000 kPa | 837.8 kg/m3 | –
313.15 K, 120000 kPa | 842.1 kg/m3 | –
313.15 K, 130000 kPa | 846.4 kg/m3 | –
313.15 K, 140000 kPa | 850.4 kg/m3 | –
323.15 K, 100 kPa | 759.07 kg/m3 | 1051.8
333.15 K, 100 kPa | 749.42 kg/m3 and 749.4 kg/m3 | 1015.3
333.15 K, 1000 kPa | 750.5 kg/m3 | –
333.15 K, 5000 kPa | 754.9 kg/m3 | –
333.15 K, 10000 kPa | 760 kg/m3 | –
333.15 K, 15000 kPa | 764.9 kg/m3 | –
333.15 K, 20000 kPa | 769.3 kg/m3 | –
333.15 K, 25000 kPa | 773.6 kg/m3 | –
333.15 K, 30000 kPa | 777.7 kg/m3 | –
333.15 K, 35000 kPa | 781.5 kg/m3 | –
333.15 K, 40000 kPa | 785.3 kg/m3 | –
333.15 K, 45000 kPa | 788.9 kg/m3 | –
333.15 K, 50000 kPa | 792.3 kg/m3 | –
333.15 K, 55000 kPa | 795.6 kg/m3 | –
333.15 K, 60000 kPa | 798.7 kg/m3 | –
333.15 K, 65000 kPa | 801.8 kg/m3 | –
333.15 K, 70000 kPa | 804.8 kg/m3 | –
333.15 K, 80000 kPa | 810.5 kg/m3 | –
333.15 K, 90000 kPa | 815.9 kg/m3 | –
333.15 K, 100000 kPa | 820.9 kg/m3 | –
333.15 K, 110000 kPa | 825.8 kg/m3 | –
333.15 K, 120000 kPa | 830.4 kg/m3 | –
333.15 K, 130000 kPa | 834.8 kg/m3 | –
333.15 K, 140000 kPa | 839.2 kg/m3 | –
353.15 K, 1000 kPa | 729.8 kg/m3 | –
353.15 K, 5000 kPa | 735 kg/m3 | –
353.15 K, 10000 kPa | 741 kg/m3 | –
353.15 K, 15000 kPa | 746.5 kg/m3 | –
353.15 K, 20000 kPa | 751.7 kg/m3 | –
353.15 K, 25000 kPa | 756.5 kg/m3 | –
353.15 K, 30000 kPa | 761 kg/m3 | –
353.15 K, 35000 kPa | 765.4 kg/m3 | –
353.15 K, 40000 kPa | 769.3 kg/m3 | –
353.15 K, 45000 kPa | 773.3 kg/m3 | –
353.15 K, 50000 kPa | 777 kg/m3 | –
353.15 K, 55000 kPa | 780.6 kg/m3 | –
353.15 K, 60000 kPa | 784 kg/m3 | –
353.15 K, 65000 kPa | 787.4 kg/m3 | –
353.15 K, 70000 kPa | 790.6 kg/m3 | –
353.15 K, 80000 kPa | 796.7 kg/m3 | –
353.15 K, 90000 kPa | 802.6 kg/m3 | –
353.15 K, 100000 kPa | 808 kg/m3 | –
353.15 K, 110000 kPa | 813.2 kg/m3 | –
353.15 K, 120000 kPa | 818.1 kg/m3 | –
353.15 K, 130000 kPa | 822.8 kg/m3 | –
353.15 K, 140000 kPa | 827.3 kg/m3 | –
373.15 K, 1000 kPa | 706.6 kg/m3 | –
373.15 K, 5000 kPa | 712.8 kg/m3 | –
373.15 K, 10000 kPa | 719.9 kg/m3 | –
373.15 K, 15000 kPa | 726.3 kg/m3 | –
373.15 K, 20000 kPa | 732 kg/m3 | –
373.15 K, 25000 kPa | 737.7 kg/m3 | –
373.15 K, 30000 kPa | 742.9 kg/m3 | –
373.15 K, 35000 kPa | 747.8 kg/m3 | –
373.15 K, 40000 kPa | 752.2 kg/m3 | –
373.15 K, 45000 kPa | 756.6 kg/m3 | –
373.15 K, 50000 kPa | 760.7 kg/m3 | –
373.15 K, 55000 kPa | 764.7 kg/m3 | –
373.15 K, 60000 kPa | 768.6 kg/m3 | –
373.15 K, 65000 kPa | 772.1 kg/m3 | –
373.15 K, 70000 kPa | 775.6 kg/m3 | –
373.15 K, 80000 kPa | 782.3 kg/m3 | –
373.15 K, 90000 kPa | 788.5 kg/m3 | –
373.15 K, 100000 kPa | 794.4 kg/m3 | –
373.15 K, 110000 kPa | 799.9 kg/m3 | –
373.15 K, 120000 kPa | 805.3 kg/m3 | –
373.15 K, 130000 kPa | 810.2 kg/m3 | –
373.15 K, 140000 kPa | 815.1 kg/m3 | –
393.15 K, 1000 kPa | 680.4 kg/m3 | –
393.15 K, 5000 kPa | 688.2 kg/m3 | –
393.15 K, 10000 kPa | 696.7 kg/m3 | –
393.15 K, 15000 kPa | 704.4 kg/m3 | –
393.15 K, 20000 kPa | 711.4 kg/m3 | –
393.15 K, 25000 kPa | 717.6 kg/m3 | –
393.15 K, 30000 kPa | 723.5 kg/m3 | –
393.15 K, 35000 kPa | 729 kg/m3 | –
393.15 K, 40000 kPa | 734.2 kg/m3 | –
393.15 K, 45000 kPa | 739 kg/m3 | –
393.15 K, 50000 kPa | 743.5 kg/m3 | –
393.15 K, 55000 kPa | 747.9 kg/m3 | –
393.15 K, 60000 kPa | 752.1 kg/m3 | –
393.15 K, 65000 kPa | 756.1 kg/m3 | –
393.15 K, 70000 kPa | 760 kg/m3 | –
393.15 K, 80000 kPa | 767.2 kg/m3 | –
393.15 K, 90000 kPa | 773.9 kg/m3 | –
393.15 K, 100000 kPa | 780.2 kg/m3 | –
393.15 K, 110000 kPa | 786.2 kg/m3 | –
393.15 K, 120000 kPa | 791.8 kg/m3 | –
393.15 K, 130000 kPa | 797.2 kg/m3 | –
393.15 K, 140000 kPa | 802.3 kg/m3 | –

— the NIST ThermoML archive (doi:10.1016/j.jct.2018.12.018)
